# Results as given in patent US9382255B2, “Substituted pyrrolopyrimidinylamino-benzothiazolones as MKNK kinase inhibitors” (BAYER PHARMA AKTIENGESELLSCHAFT, priority 2012, dated 2016).
# Biological target: T1, human full-length MKNK1 (Homo sapiens, UniProt Q9BUB5, T385D)
# T1 construct: GST (N); purchased Carna Biosciences 02-145; host or cells: insect cells (baculovirus expression system)
# Test: MKNK1 kinase high ATP assay (TR-FRET)
# Format: biochemical
# Conditions: high ATP (2 mM final), 15 min preincubation with enzyme, GST-MKNK1 (T344D)
# Protocol: MKNK1 Kinase High ATP Assay
# MKNK1-inhibitory activity at high ATP of compounds of the present invention after their preincubation with MKNK1 was quantified employing the TR-FRET-based MKNK1 high ATP assay as described in the following paragraphs.
# A recombinant fusion protein of Glutathione-S-Transferase (GST, N-terminally) and human full-length MKNK1 (amino acids 1-424 and T344D of accession number BAA 19885.1), expressed in insect cells using baculovirus expression system and purified via glutathione sepharose affinity chromatography, was purchased from Carna Biosciences (product no 02-145) and used as enzyme. As substrate for the kinase reaction the biotinylated peptide biotin-Ahx-IKKRKLTRRKSLKG (C-terminus in amide form) was used, which can be purchased e.g. from the company Biosyntan (Berlin-Buch, Germany).
# For the assay 50 nL of a 100 fold concentrated solution of the test compound in DMSO was pipetted into a black low volume 384 well microtiter plate (Greiner Bio-One, Frickenhausen, Germany), 2 μL of a solution of MKNK1 in aqueous assay buffer [50 mM HEPES pH 7.5, 5 mM MgCL2, 1.0 mM dithiothreitol, 0.005% (v/v) Nonidet-P40 (Sigma)] was added and the mixture was incubated for 15 min at 22° C. to allow pre-binding of the test compounds to the enzyme before the start of the kinase reaction. Then the kinase reaction was started by the addition of 3 μL of a solution of adenosine-tri-phosphate (ATP, 3.3 mM=>final conc. in the 5 μL assay volume is 2 mM) and substrate (0.1 μM=>final conc. in the 5 μL assay volume is 0.06 μM) in assay buffer and the resulting mixture was incubated for a reaction time of 30 min at 22° C. The concentration of MKNK1 was adjusted depending of the activity of the enzyme lot and was chosen appropriate to have the assay in the linear range, typical concentrations were in the range of 0.003 μg/mL. The reaction was stopped by the addition of 5 μL of a solution of TR-FRET detection reagents (5 nM streptavidine-XL665 [Cisbio Bioassays, Codolet, France] and 1 nM anti-ribosomal protein S6 (pSer236)-antibody from Invitrogen [#44921G] and 1 nM LANCE EU-W1024 Labeled ProteinG [Perkin-Elmer, product no. AD0071]) in an aqueous EDTA-solution (100 mM EDTA, 0.1% (w/v) bovine serum albumin in 50 mM HEPES pH 7.5).
# The resulting mixture was incubated for 1 h at 22° C. to allow the formation of complex between the phosphorylated biotinylated peptide and the detection reagents. Subsequently the amount of phosphorylated substrate was evaluated by measurement of the resonance energy transfer from the Eu-chelate to the streptavidine-XL. Therefore, the fluorescence emissions at 620 nm and 665 nm after excitation at 350 nm were measured in a TR-FRET reader, e.g. a Rubystar (BMG Labtechnologies, Offenburg, Germany) or a Viewlux (Perkin-Elmer). The ratio of the emissions at 665 nm and at […] was taken as the measure for the amount of phosphorylated substrate. The data were normalised (enzyme reaction without inhibitor=0% inhibition, all other assay components but no enzyme=100% inhibition).
# T1 sequence (Q9BUB5 1-424 isoform Q9BUB5-2 T344D): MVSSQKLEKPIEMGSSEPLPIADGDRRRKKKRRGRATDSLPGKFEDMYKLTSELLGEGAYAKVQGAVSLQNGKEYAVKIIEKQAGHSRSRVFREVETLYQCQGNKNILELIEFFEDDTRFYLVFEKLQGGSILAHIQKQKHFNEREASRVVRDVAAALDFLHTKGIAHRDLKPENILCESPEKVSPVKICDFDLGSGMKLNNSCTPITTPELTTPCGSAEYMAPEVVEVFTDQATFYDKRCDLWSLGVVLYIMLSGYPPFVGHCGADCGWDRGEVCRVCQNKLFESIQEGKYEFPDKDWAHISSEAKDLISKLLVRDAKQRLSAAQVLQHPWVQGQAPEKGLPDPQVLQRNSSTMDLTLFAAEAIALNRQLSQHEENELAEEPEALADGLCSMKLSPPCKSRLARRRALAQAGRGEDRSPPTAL
row,Compound,IC50
1,"CCc1[nH]c2ncnc(Nc3ccc4[nH]c(=O)sc4c3)c2c1C [Example 1, 6-[(6-Ethyl-5-methyl-7H-pyrrolo[2,3-d]pyrimidin-4-yl)amino]-1,3-benzothiazol-2(3H)-one]",27 nM
2,"O=c1[nH]c2ccc(Nc3ncnc4[nH]cc(F)c34)cc2s1 [Example 2, 6-[(5-Fluoro-7H-pyrrolo[2,3-d]pyrimidin-4-yl)amino]-1,3-benzothiazol-2(3H)-one]",27 nM
3,"O=C(O)c1c[nH]c2ncnc(Nc3ccc4[nH]c(=O)sc4c3)c12 [Example 3, 4-[(2-Oxo-2,3-dihydro-1,3-benzothiazol-6-yl)amino]-7H-pyrrolo[2,3-d]pyrimidine-5-carboxylic acid]",7 nM
4,"CN1CCN(C(=O)c2c[nH]c3ncnc(Nc4ccc5[nH]c(=O)sc5c4)c23)CC1 [Example 4, 6-({5-[(4-Methylpiperazin-1-yl)carbonyl]-7H-pyrrolo[2,3-d]pyrimidin-4-yl}amino)-1,3-benzothiazol-2(3H)-one]",19 nM
5,"CC(C)NC(=O)c1c[nH]c2ncnc(Nc3ccc4[nH]c(=O)sc4c3)c12 [Example 5, N-Isopropyl-4-[(2-oxo-2,3-dihydro-1,3-benzothiazol-6-yl)amino]-7H-pyrrolo[2,3-d]pyrimidine-5-carboxamide]",4 nM
6,"O=c1[nH]c2ccc(Nc3ncnc4[nH]ccc34)cc2s1 [Example 6, 6-(7H-Pyrrolo[2,3-d]pyrimidin-4-ylamino)-1,3-benzothiazol-2(3H)-one]",19 nM
7,"O=c1[nH]c2ccc(Nc3ncnc4[nH]ncc34)cc2s1 [Example 7, 6-(1H-pyrazolo[3,4-d]pyrimidin-4-ylamino)-1,3-benzothiazol-2(3H)-one]",44 nM
8,"O=c1[nH]c2ccc(Nc3ncnc4[nH]c(Br)cc34)cc2s1 [Example 8, 6-[(6-Bromo-7H-pyrrolo[2,3-d]pyrimidin-4-yl)amino]-1,3-benzothiazol-2(3H)-one]",5 nM
9,"O=c1[nH]c2ccc(Nc3ncnc4[nH]cnc34)cc2s1 [Example 9, 6-(9H-Purin-6-ylamino)-1,3-benzothiazol-2(3H)-one]",11 nM
10,"CCOC(=O)c1cc2c(Nc3ccc4[nH]c(=O)sc4c3)ncnc2[nH]1 [Example 10, Ethyl 4-[(2-oxo-2,3-dihydro-1,3-benzothiazol-6-yl)amino]-7H-pyrrolo[2,3-d]pyrimidine-6-carboxylate]",2 nM
11,"O=c1[nH]c2ccc(Nc3ncnc4[nH]c(C#CCO)cc34)cc2s1 [Example 11, 6-{[6-(3-Hydroxyprop-1-yn-1-yl)-7H-pyrrolo[2,3-d]pyrimidin-4-yl]amino}-1,3-benzothiazol-2(3H)-one]",6 nM
12,"N#Cc1c[nH]c2ncnc(Nc3ccc4[nH]c(=O)sc4c3)c12 [Example 12, 4-[(2-Oxo-2,3-dihydro-1,3-benzothiazol-6-yl)amino]-7H-pyrrolo[2,3-d]pyrimidine-5-carbonitrile]",13 nM
13,"CCc1[nH]c2ncnc(Nc3cc4sc(=O)[nH]c4cc3OC)c2c1C [Example 13, 6-[(6-Ethyl-5-methyl-7H-pyrrolo[2,3-d]pyrimidin-4-yl)amino]-5-methoxy-1,3-benzothiazol-2(3H)-one]",6 nM
14,"Cc1cc2c(Nc3ccc4[nH]c(=O)sc4c3)ncnc2[nH]1 [Example 14, 6-[(6-Methyl-7H-pyrrolo[2,3-d]pyrimidin-4-yl)amino]-1,3-benzothiazol-2(3H)-one]",25 nM
15,"Cc1c[nH]c2ncnc(Nc3ccc4[nH]c(=O)sc4c3)c12 [Example 15, 6-[(5-Methyl-7H-pyrrolo[2,3-d]pyrimidin-4-yl)amino]-1,3-benzothiazol-2(3H)-one]",9 nM
16,"O=c1[nH]c2ccc(Nc3ncnc4[nH]c(Cl)cc34)cc2s1 [Example 16, 6-[(6-Chloro-7H-pyrrolo[2,3-d]pyrimidin-4-yl)amino]-1,3-benzothiazol-2(3H)-one]",11 nM

row,Compound,IC50
1,"O=c1[nH]c2ccc(Nc3ncnc4[nH]c(CCCO)cc34)cc2s1 [Example 17, 6-{[6-(3-Hydroxypropyl)-7H-pyrrolo[2,3-d]pyrimidin-4-yl]amino}-1,3-benzothiazol-2(3H)-one]",9 nM
2,"COc1cc2[nH]c(=O)sc2cc1Nc1ncnc2[nH]c(Br)cc12 [Example 18, 6-[(6-Bromo-7H-pyrrolo[2,3-d]pyrimidin-4-yl)amino]-5-methoxy-1,3-benzothiazol-2(3H)-one]",18 nM
3,"COc1cc2[nH]c(=O)sc2cc1Nc1ncnc2[nH]ccc12 [Example 19, 5-Methoxy-6-(7H-pyrrolo[2,3-d]pyrimidin-4-ylamino)-1,3-benzothiazol-2(3H)-one]",11 nM
4,"CN(C)C(=O)c1c[nH]c2ncnc(Nc3ccc4[nH]c(=O)sc4c3)c12 [Example 20, N,N-dimethyl-4-[(2-oxo-2,3-dihydro-1,3-benzothiazol-6-yl)amino]-7H-pyrrolo[2,3-d]pyrimidine-5-carboxamide]",15 nM
5,"CC(C)Cc1[nH]c2ncnc(Nc3ccc4[nH]c(=O)sc4c3)c2c1C(C)C [Example 21, 6-[(6-Isobutyl-5-isopropyl-7H-pyrrolo[2,3-d]pyrimidin-4-yl)amino]-1,3-benzothiazol-2(3H)-one]",32 nM
6,"CCCc1[nH]c2ncnc(Nc3ccc4[nH]c(=O)sc4c3)c2c1CC [Example 22, 6-[(5-Ethyl-6-propyl-7H-pyrrolo[2,3-d]pyrimidin-4-yl)amino]-1,3-benzothiazol-2(3H)-one]",16 nM
7,"O=c1[nH]c2ccc(Nc3ncnc4[nH]c(S(=O)(=O)c5ccc(Cl)cc5)cc34)cc2s1 [Example 23, 6-({6-[(4-Chlorophenyl)sulfonyl]-7H-pyrrolo[2,3-d]pyrimidin-4-yl}amino)-1,3-benzothiazol-2(3H)-one]",12 nM
8,"Cc1ccc(S(=O)(=O)c2cc3c(Nc4ccc5[nH]c(=O)sc5c4)ncnc3[nH]2)cc1 [Example 24, 6-({6-[(4-Methylphenyl)sulfonyl]-7H-pyrrolo[2,3-d]pyrimidin-4-yl}amino)-1,3-benzothiazol-2(3H)-one]",5 nM
9,"CCOC(=O)c1cc2c(Nc3cc4sc(=O)[nH]c4cc3OC)ncnc2[nH]1 [Example 25, Ethyl 4-[(5-methoxy-2-oxo-2,3-dihydro-1,3-benzothiazol-6-yl)amino]-7H-pyrrolo[2,3-d]pyrimidine-6-carboxylate]",4 nM
10,"COc1cc2[nH]c(=O)sc2cc1Nc1ncnc2[nH]c(C(=O)O)cc12 [Example 26, 4-[(5-Methoxy-2-oxo-2,3-dihydro-1,3-benzothiazol-6-yl)amino]-7H-pyrrolo[2,3-d]pyrimidine-6-carboxylic acid]",21 nM
11,"O=c1[nH]c2ccc(Nc3ncnc4[nH]cc(Br)c34)cc2s1 [Example 27, 6-[(5-Bromo-7H-pyrrolo[2,3-d]pyrimidin-4-yl)amino]-1,3-benzothiazol-2(3H)-one]",6 nM
12,"COc1cc2[nH]c(=O)sc2cc1Nc1ncnc2[nH]cc(F)c12 [Example 28, 6-[(5-Fluoro-7H-pyrrolo[2,3-d]pyrimidin-4-yl)amino]-5-methoxy-1,3-benzothiazol-2(3H)-one]",1 nM
13,"CCCc1[nH]c2ncnc(Nc3cc4sc(=O)[nH]c4cc3OC)c2c1CC [Example 29, 6-[(5-Ethyl-6-propyl-7H-pyrrolo[2,3-d]pyrimidin-4-yl)amino]-5-methoxy-1,3-benzothiazol-2(3H)-one]",5 nM
14,"O=C(O)c1cc2c(Nc3ccc4[nH]c(=O)sc4c3)ncnc2[nH]1 [Example 30, 4-[(2-Oxo-2,3-dihydro-1,3-benzothiazol-6-yl)amino]-7H-pyrrolo[2,3-d]pyrimidine-6-carboxylic acid]",36 nM
15,"CN(C)C1CCN(C(=O)c2cc3c(Nc4ccc5[nH]c(=O)sc5c4)ncnc3[nH]2)CC1 [Example 31, 6-[(6-{[4-(Dimethylamino)piperidin-1-yl]carbonyl}-7H-pyrrolo[2,3-d]pyrimidin-4-yl)amino]-1,3-benzothiazol-2(3H)-one]",40 nM
16,"O=C(c1cc2c(Nc3ccc4[nH]c(=O)sc4c3)ncnc2[nH]1)N1CCOCC1 [Example 32, 6-{[6-(Morpholin-4-ylcarbonyl)-7H-pyrrolo[2,3-d]pyrimidin-4-yl]amino}-1,3-benzothiazol-2(3H)-one]",20 nM
